How the values were obtained:
[1] = tested on: STEME; experiment: Post-emergence action against STEME, 1.28 kg/ha; assay type: in vivo, Stellaria media; conditions: dosage 1280 g/ha, visual rating about 3 weeks after treatment vs untreated controls (100% = plants died)
Outline: (§1)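 Activity scored visually roughly 3 weeks after treatment against untreated plants (0% = as control, 100% = dead). Plants grown in sandy loam in greenhouse, treated at one-leaf stage, 2–3 weeks post-sowing, with WP/EC spray containing 0.5% additive at 600 l/ha.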

[2] = tested on: DIGSA; experiment: Pre-emergence action against DIGSA, 1280 g/ha; assay type: in vivo, Digitaria sanguinalis; conditions: visual scoring after about 3 weeks vs untreated controls, 100% = plants have died, 0% = like control plants
Outline: (§2)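 Compound applied as WP or EC in aqueous spray (0.5% additive, 600 L/ha) to the surface of sandy loam covering freshly sown seeds. After about 3 weeks under good greenhouse conditions, damage is given as visual percentage, 100% meaning plant death.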

[3] = tested on: SETVI; experiment: Post-emergence action against SETVI, 1.28 kg/ha; assay type: in vivo, Setaria viridis; conditions: dosage 1280 g/ha, visual rating about 3 weeks after treatment vs untreated controls
Outline: as §1

[4] = tested on: DIGSA; experiment: Post-emergence action against DIGSA, 1.28 kg/ha; assay type: in vivo, Digitaria sanguinalis; conditions: dosage 1280 g/ha, visual rating about 3 weeks after treatment vs untreated controls
Outline: as §1

[5] = tested on: KCHSC; experiment: Pre-emergence action against KCHSC, 1280 g/ha; assay type: in vivo, Bassia scoparia; conditions: scored visually after about 3 weeks vs untreated controls (100% = plants have died)
Outline: as §2

[6] = tested on: VERPE; experiment: Post-emergence action against VERPE, 1.28 kg/ha; assay type: in vivo, Veronica persica; conditions: dosage 1280 g/ha, visual rating about 3 weeks after treatment vs untreated controls (100% = plants died)
Outline: as §1

[7] = tested on: ECHCG; experiment: Pre-emergence action against ECHCG, 1280 g/ha; assay type: in vivo, Echinochloa crus-galli; conditions: visual scoring after about 3 weeks vs untreated controls, 100% = plants have died, 0% = like control plants
Outline: as §2

[8] = tested on: AMARE; experiment: Pre-emergence action at 320 g/ha against AMARE; assay type: in vivo, Amaranthus retroflexus; conditions: visual scoring after about 3 weeks vs untreated controls
Outline: (§3)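 Greenhouse pot trial in which formulated compound (wettable powder or emulsion concentrate) goes onto the soil surface right after sowing, at a spray volume of 600 l/ha including 0.5% additive. Effects are judged visually after about 3 weeks (0% = like control, 100% = dead).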

[9] = tested on: VERPE; experiment: Pre-emergence action at 320 g/ha against VERPE; assay type: in vivo, Veronica persica; conditions: visual scoring after about 3 weeks vs untreated controls
Outline: as §3

[10] = tested on: LOLRI; experiment: Pre-emergence action against LOLRI, 1280 g/ha; assay type: in vivo, Lolium rigidum; conditions: visual scoring after about 3 weeks vs untreated controls, 100% = plants have died, 0% = like control plants
Outline: as §2

[11] = tested on: POAAN; experiment: Post-emergence action against POAAN, 1.28 kg/ha; assay type: in vivo, Poa annua; conditions: dosage 1280 g/ha, visual rating about 3 weeks after treatment vs untreated controls
Outline: as §1

[12] = tested on: MATIN; experiment: Pre-emergence action against MATIN, 1280 g/ha; assay type: in vivo, Tripleurospermum inodorum (Matricaria inodora); conditions: scored visually after about 3 weeks vs untreated controls (100% = plants have died)
Outline: as §2

[13] = tested on: VERPE; experiment: Pre-emergence action against VERPE, 1280 g/ha; assay type: in vivo, Veronica persica; conditions: scored visually after about 3 weeks vs untreated controls (100% = plants have died)
Outline: as §2

[14] = tested on: AMARE; experiment: Post-emergence action against AMARE, 1.28 kg/ha; assay type: in vivo, Amaranthus retroflexus; conditions: dosage 1280 g/ha, visual rating about 3 weeks after treatment vs untreated controls (100% = plants died)
Outline: as §1

[15] = tested on: MATIN; experiment: Pre-emergence action at 320 g/ha against MATIN; assay type: in vivo, Tripleurospermum inodorum (Matricaria inodora); conditions: visual scoring after about 3 weeks vs untreated controls
Outline: as §3

[16] = tested on: STEME; experiment: Pre-emergence action against STEME, 1280 g/ha; assay type: in vivo, Stellaria media; conditions: scored visually after about 3 weeks vs untreated controls (100% = plants have died)
Outline: as §2

[17] = tested on: AMARE; experiment: Pre-emergence action against AMARE, 1280 g/ha; assay type: in vivo, Amaranthus retroflexus; conditions: scored visually after about 3 weeks vs untreated controls (100% = plants have died)
Outline: as §2

[18] = tested on: ECHGC; experiment: Pre-emergence action at 320 g/ha against ECHGC; assay type: in vivo, Echinochloa crus-galli; conditions: visual scoring after about 3 weeks vs untreated controls
Source text: b) Seeds of monocotyledonous and dicotyledonous weed plants and crop plants are placed in plastic or organic planting pots and covered with soil. The compounds of the invention, formulated in the form of wettable powders (WP) or as emulsion concentrates (EC), are then applied onto the surface of the covering soil as aqueous suspension or emulsion with addition of 0.5% additive at a water application rate of 600 l/ha (converted). After the treatment, the pots are placed in a greenhouse and kept under good growth conditions for the trial plants. After about 3 weeks, the effect of the preparations is scored visually in comparison with untreated controls as percentages. For example, 100% activity=the plants have died, 0% activity=like control plants. Tables 13 to 26 below show the effects of selected compounds of the general formula (I) on various harmful plants and at an application rate corresponding to 320 g/ha, which were obtained by the experimental procedure mentioned above.

[19] = tested on: ALOMY; experiment: Pre-emergence action against ALOMY, 1280 g/ha; assay type: in vivo, Alopecurus myosuroides; conditions: visual scoring after about 3 weeks vs untreated controls, 100% = plants have died, 0% = like control plants
Outline: as §2

[20] = tested on: ALOMY; experiment: Pre-emergence action at 320 g/ha against ALOMY; assay type: in vivo, Alopecurus myosuroides; conditions: scored visually after about 3 weeks vs untreated controls (100% = plants have died)
Outline: as §3

[21] = tested on: POAAN; experiment: Pre-emergence action against POAAN, 1280 g/ha; assay type: in vivo, Poa annua; conditions: visual scoring after about 3 weeks vs untreated controls, 100% = plants have died, 0% = like control plants
Outline: as §2

[22] = tested on: SETVI; experiment: Pre-emergence action against SETVI, 1280 g/ha; assay type: in vivo, Setaria viridis; conditions: visual scoring after about 3 weeks vs untreated controls, 100% = plants have died, 0% = like control plants
Outline: as §2

[23] = tested on: DIGSA; experiment: Pre-emergence action at 320 g/ha against DIGSA; assay type: in vivo, Digitaria sanguinalis; conditions: visual scoring after about 3 weeks vs untreated controls
Outline: as §3

[24] = tested on: ALOMY; experiment: Post-emergence action against ALOMY, 1.28 kg/ha; assay type: in vivo, Alopecurus myosuroides; conditions: dosage 1280 g/ha, visual rating about 3 weeks after treatment vs untreated controls
Outline: as §1

[25] = tested on: POLCO; experiment: Pre-emergence action at 320 g/ha against POLCO; assay type: in vivo, Fallopia convolvulus (Polygonum convolvulus); conditions: visual scoring after about 3 weeks vs untreated controls
Outline: as §3

[26] = tested on: SETVI; experiment: Pre-emergence action at 320 g/ha against SETVI; assay type: in vivo, Setaria viridis; conditions: visual scoring after about 3 weeks vs untreated controls
Outline: as §3

[27] = tested on: LOLRI; experiment: Pre-emergence action at 320 g/ha against LOLRI; assay type: in vivo, Lolium rigidum; conditions: visual scoring after about 3 weeks vs untreated controls
Outline: as §3

[28] = tested on: ABUTH; experiment: Post-emergence action against ABUTH, 1.28 kg/ha; assay type: in vivo, Abutilon theophrasti; conditions: dosage 1280 g/ha, visual rating about 3 weeks after treatment vs untreated controls (100% = plants died)
Outline: as §1

[29] = tested on: ECHCG; experiment: Post-emergence action against ECHCG, 1.28 kg/ha; assay type: in vivo, Echinochloa crus-galli; conditions: dosage 1280 g/ha, visual rating about 3 weeks after treatment vs untreated controls
Outline: as §1

[30] = tested on: MATIN; experiment: Post-emergence action against MATIN, 1.28 kg/ha; assay type: in vivo, Tripleurospermum inodorum (Matricaria inodora); conditions: dosage 1280 g/ha, visual rating about 3 weeks after treatment vs untreated controls (100% = plants died)
Outline: as §1

[31] = tested on: AVEFA; experiment: Pre-emergence action at 320 g/ha against AVEFA; assay type: in vivo; conditions: visual scoring after about 3 weeks vs untreated controls
Outline: as §3

[32] = tested on: ABUTH; experiment: Pre-emergence action against ABUTH, 1280 g/ha; assay type: in vivo, Abutilon theophrasti; conditions: scored visually after about 3 weeks vs untreated controls (100% = plants have died)
Source text: 1. Pre-Emergence Herbicidal Effect and Crop Plant Compatibility a) Seeds of mono- and dicotyledonous weed plants are placed in plastic pots in sandy loam soil (doubly sown with one species each of mono- or dicotyledonous weed plants per pot) and covered with soil. The compounds of the invention, formulated in the form of wettable powders (WP) or as emulsion concentrates (EC), are then applied onto the surface of the covering soil as aqueous suspension or emulsion with addition of 0.5% additive at a water application rate equivalent to 600 litres per hectare. After the treatment, the pots are placed in a greenhouse and kept under good growth conditions for the trial plants. After about 3 weeks, the effect of the preparations is scored visually in comparison with untreated controls as percentages. For example, 100% activity=the plants have died, 0% activity=like control plants. 1. Pre-Emergence Effectiveness Tables 1 to 12 below show the effects of selected compounds of the general formula (I) according to Tables 1 and 2 on various harmful plants and at an application rate corresponding to 1280 g/ha, which were obtained by the experimental procedure mentioned above.

[33] = tested on: VIOTR; experiment: Pre-emergence action at 320 g/ha against VIOTR; assay type: in vivo, Viola tricolor; conditions: dosage 320 g/ha
Outline: as §3

[34] = tested on: KCHSC; experiment: Post-emergence action against KCHSC, 1.28 kg/ha; assay type: in vivo, Bassia scoparia; conditions: dosage 1280 g/ha, visual rating about 3 weeks after treatment vs untreated controls (100% = plants died)
Outline: as §1

[35] = tested on: LOLRI; experiment: Post-emergence action against LOLRI, 1.28 kg/ha; assay type: in vivo, Lolium rigidum; conditions: dosage 1280 g/ha, visual rating about 3 weeks after treatment vs untreated controls
Outline: as §1

SMILES	Post-emergence action against STEME [1] [%]	Pre-emergence action against DIGSA [2] [%]	Post-emergence action against SETVI [3] [%]	Pre-emergence action against KCHSC [5] [%]	Post-emergence action against VERPE [6] [%]	Pre-emergence action against ECHCG [7] [%]	Pre-emergence action against LOLRI [10] [%]	Post-emergence action against POAAN [11] [%]	Pre-emergence action against MATIN [12] [%]	Pre-emergence action against VERPE [13] [%]	Post-emergence action against AMARE [14] [%]	Pre-emergence action against STEME [16] [%]	Pre-emergence action against AMARE [17] [%]	Pre-emergence action against ALOMY [19] [%]	Pre-emergence action against POAAN [21] [%]	Pre-emergence action against SETVI [22] [%]	Post-emergence action against ALOMY [24] [%]	Post-emergence action against ABUTH [28] [%]	Post-emergence action against ECHCG [29] [%]	Post-emergence action against MATIN [30] [%]	also measured
O=C(COc1nn(-c2ccccc2F)c(-c2ccc(F)nc2)c1Br)OCCCl [VII-108]	100	100	90	90	100	100	100	100	100	100	100	100	100	100	100	100	100	90	100	100	Post-emergence action against DIGSA [4]: 100%; Pre-emergence action against AMARE in % [8]: 100%; Pre-emergence action against VERPE in % [9]: 100%; Pre-emergence action against MATIN in % [15]: 100%; Pre-emergence action against ECHGC in % [18]: 100%; Pre-emergence action at 320 g/ha against ALOMY in % [20]: 100%; Pre-emergence action against DIGSA in % [23]: 100%; Pre-emergence action against POLCO in % [25]: 100%; Pre-emergence action against SETVI in % [26]: 100%; Pre-emergence action against LOLRI in % [27]: 100%; Pre-emergence action against AVEFA in % [31]: 80%; Pre-emergence action against ABUTH [32]: 90%; Pre-emergence action against VIOTR in % [33]: 100%; Post-emergence action against KCHSC [34]: 90%; Post-emergence action against LOLRI [35]: 100%
COC(=O)[C@@H](C)Oc1nn(-c2ccccc2F)c(-c2ccc(F)nc2)c1Br [VII-123-a]	100	100	100	100	90	100	100	100	100	100	90	100	100	100	100	100	100	90	100	90	Pre-emergence action against ABUTH [32]: 90%; Post-emergence action against KCHSC [34]: 90%; Post-emergence action against LOLRI [35]: 100%
